Results as given in patent publication US20170306388A1, “Method for the Identification of Inhibitors and Activators of Thymidylate Kinases” (Carnegie Mellon University, priority 2016, published 2017).

Experiments:
CaTMPK [1] = assay: One-dimensional proton NMR activity assay of CaTMPK; assay type: biochemical, Candida albicans; settings: substance as phosphate acceptor (1 mM), 1 mM ATP as phosphate donor, pH 7.4
Excerpt: Three different methods to assay for TMK activity have been reported in the literature. The first method uses isotope labeled [^14C] dTMP as substrate and utilizes the separation of dTMP and dTDP by thin-layer chromatography (TLC). The next method is a coupled enzymatic assay which involves the use of pyruvate kinase and lactate dehydrogenase to couple the production of ADP (a product of TMK activity) to the oxidation of NADH to NAD^+ which can be monitored spectrophotometrically at 340 nm. The third protocol involves the use of luciferin/luciferase to measure the concentration of unreacted ATP, or the amount to ADP in the TMK reaction mixture. All of these assays have inherent problems, ranging from the use of radioactivity to the potential inhibition of the coupling enzymes. Consequently, a simple one step assay to monitor the conversion of TMP to TDP was developed. The assay relies on the difference in the pyrimidine H6 proton chemical shifts of TMP and TDP (see FIG. 4). […] The new assay of the present invention also allows for the near-continuous measurement of product production, while current high-throughput assays are quench-stop type assays.
One-dimensional proton (^1H) NMR was used to monitor the activity of CaTMPK. The assay depends on the change in the chemical shift of the H6 proton (dTMP, AZTMP) or the H8 proton (dGMP) of the nucleobases upon the addition of the second phosphate group. The assay reaction included 50 mM Tris-HCl (pH 7.4), 50 mM KCl, 10 mM MgCl2, 1 mM ATP as the phosphate donor, 1 mM phosphate acceptor (dTMP, AZTMP or dGMP) and 10% D20. The reaction was initiated by the addition of CaTMPK to the reaction mix. A series of ^1H NMR spectra were acquired and the area (or height) of the proton line corresponding to the monophosphate forms of the acceptor molecule was plotted against time to calculate the initial rates of catalysis for each of the three substrates.

CaTMPK [2] = assay: NADH coupled enzyme activity assay (pyruvate kinase/lactate dehydrogenase) of CaTMPK; assay type: biochemical, Candida albicans; settings: substance as phosphate acceptor, NADH decrease at 340 nm, pH 7.4
Experimental: The NADH coupled enzyme activity assay (Blondin, C., et al. (1994). Improved spectrophotometric assay of nucleoside monophosphate kinase activity using the pyruvate kinase/lactate dehydrogenase coupling system. Anal. Biochem 220, 219-221) is a well established assay to monitor the enzyme activity of thymidylate kinases. The assay was used to measure the activity of CaTMPK with the different phosphate acceptors (dTMP, AZTMP or dGMP). The reaction mixture consisted of 50 mM Tris-HCl (pH 7.4), 50 mM KCl, 10 mM MgCl2, 0.5 mM phosphoenolpyruvate, 0.15 mM NADH, 5 units/mL each of pyruvate kinase and lactate dehydrogenase. The reaction was initiated by adding the enzyme and the reaction rate was measured by monitoring the decrease of NADH concentration at 340 nm.

Structure (SMILES) | kcat, nmr assay (CaTMPK [1]) [s⁻¹] | kcat, coupled enzyme assay (CaTMPK [2]) [s⁻¹]
Cc1cn([C@H]2C[C@H](N=[N+]=[N-])[C@@H](COP(=O)(O)O)O2)c(=O)[nH]c1=O [AZTMP, azidothymidine monophosphate] | 0.533 | 0.305
Nc1nc2c(ncn2[C@H]2C[C@H](O)[C@@H](COP(=O)(O)O)O2)c(=O)[nH]1 [dGMP] | 0.00617 | 0.0083
Cc1cn([C@H]2C[C@H](O)[C@@H](COP(=O)(O)O)O2)c(=O)[nH]c1=O [dTMP, deoxythymidine monophosphate] | 8.33 | 6.85
